# Results reported in US9481885B2, “Methods and compositions related to miR-21 and miR-29a, exosome inhibition, and cancer metastasis” (Ohio State Innovation Foundation, priority 2011, dated 2016).
# Key:
# [1] = tested on: human peripheral blood mononuclear cells (PBMCs); test: ELISA for TNF-α and IL-6 on human PBMCs; format: cell-based; conditions: human PBMCs from two healthy donors, Dotap formulations
# Protocol: To investigate whether miRNA-induced activation of TLRs also occurs in human cells, an NF-κB reporter assay was performed in HEK-293 cells. NF-κB, a transcription factor modulating the expression of several cytokine genes, is activated by several TLRs, including the only ssRNA-binding human TLRs, TLR7 and TLR8. Therefore, we treated HEK-293 cells expressing human TLR7 or TLR8 (hereafter, TLR7- and TLR8-HEK-293 cells, respectively) with Dotap alone or with Dotap formulations of miR-16, -21, -29a, or -147 and performed an NF-κB reporter assay. As positive controls Gardiquimod and ssRNA40 were used, specific agonists of TLR7 and TLR8, respectively. […] To confirm this conclusion, transfected were TLR8-HEK-293 cells with a plasmid encoding a dominant negative form of TLR8 (TLR8DN) and treated these cells with the miRNAs of interest. In TLR8DN cells, the activation of NF-κB by miR-21 and miR-29a was abolished (FIG. 3F). Also, incubated were TLR7- and TLR8-expressing human peripheral blood mononuclear cells (PBMCs) from two healthy donors with Dotap alone or Dotap formulations of miR-16, -21, -27b, -29a, -147, -574-5p, or ssRNA40 and an ELISA was performed for TNF-α and IL-6. With the exception of PBMCs treated with Dotap alone and with Dotap-miR-16, each of the other miRNAs and ssRNA40 induced the production of TNF-α and IL-6 (FIGS. 3G-3J). […]
# spleen cells = test: Flow-cytometric analysis of CD69 in spleen cells of WT and TLR7−/− mice; format: cell-based, mouse; conditions: cytofluorimetry
# Protocol: Experiments were performed to determine whether the miRNA-TLR interaction is functional, and assessed whether the miRNAs of interest induce the secretion of cytokines such as TNF-α and IL-6, whose production is increased by TLR activation. We isolated peritoneal macrophages from WT and TLR7^−/− B6 mice. Cells were treated with Dotap alone or with Dotap formulations of miR-16, -21, -29a, and -147, and an ELISA for TNF-α and IL-6 was performed. In the functional assays, included also were miR-147 and -574-5p, because they have a mature viral-derived sequence that induces cytokine production through the activation of TLR8 and TLR7, similar to that of RNA33 (FIG. 14A). […] We also treated spleen cells from WT and TLR7^−/− mice with the same miRNAs and assessed expression of CD69, an early activation marker of cells which has a role in inflammation and proliferation and which also is activated by TLR3. Polyinosinic:polycytidylic acid [poly (I:C)], a known agonist of TLR3, served as positive control.
# Total splenocytes derived from WT and TLR7^−/− age- and sex-matched mice were prepared by harvesting the spleen and preparing a single-cell suspension. Red blood cells were eliminated by osmotic lysis using red blood cell lysis buffer (eBioscience). […] Cells were stained with phycoerythrin-conjugated anti-CD69 (BioLegend) antibody and analyzed using FACSCalibur flow cytometer (Becton Dickinson).
substance,measurement,setting,value
"miR-147: synthetic mature miRNA (SEQ ID NO: 3), sequence similar to RNA33, Dotap formulation (GUGUGUGGAAAUGCUUCUGC; DOTAP formulation, further chemistry not given here)",production of IL-6,[1],induced
same,production of TNF-α,[1],induced
same,CD69 activation,spleen cells; spleen cells from TLR7−/− mice,not
same,CD69 activation,spleen cells; spleen cells from WT mice,induced
